This note sets out measurements from PMC5569483, “Screening and evolution of a novel protist xylose isomerase from the termite Reticulitermes speratus for efficient xylose fermentation in Saccharomyces cerevisiae” (Biotechnology for Biofuels, 2017).

The term Km denotes the substrate concentration at which the rate is half of its maximum.

In this assay the test system is T1, RsXI-C1.
T1 construct: full-length ORF, codon-optimized gene, expressed in S. cerevisiae W600W (strain WR311), crude cell extract
As to the kind of experiment: coupled sorbitol dehydrogenase assay, NADH oxidation at […] nm, Lineweaver-Burk. It is filed as biochemical, uncultured symbiotic protist of Reticulitermes speratus. The note with it: crude cell extract; 100 mM Tris-HCl pH 7.5, 10 mM MgSO4, 0.15 mM NADH, 30 °C, 5–250 mM D-xylose.

As for `OC1OC[C@@H](O)[C@H](O)[C@H]1O` (stereo partly shown) [xylose], the Km came out at 10.5 ± 1.1 mM.
